Reference: paper PMC12126525, “Mechanism of ATP hydrolysis in the Hsp70 BiP nucleotide-binding domain” (Nature Communications, 2025)

Molecular target: BiP NBD (Homo sapiens, UniProt P11021)
Experiment: Global kinetic fit (MCMC) of four NMR data sets (E1+E2, E1 only, E2 only, no recycling): functional cycle kinetic parameters
Format: biochemical
Parameters: His6 (N, cleaved yes); made in house; host or cells: E. coli BL21-(DE3)-Lemo, pET28a vector
From the text: It comprises 5 different states that are connected by […] reaction equations of first and second order. We consider ATP hydrolysis an irreversible reaction without backreaction. The other pathways are reversible dissociation/association reactions, arbitrarily labeled 1–5. The microscopic equations (elementary reactions) for these 11 reactions are given by:1 NBD^ATPkcat→NBD^ADP⋅Pi 2 NBD^ATPkoff1⇌kon1NBD^apo+ATP 3 NBD^ADPkoff2⇌kon2NBD^apo+ADP 4 NBD^Pikoff3⇌kon3NBD^apo+Pi 5 NBD^ADP⋅Pikoff4⇌kon4NBD^ADP+Pi 6 NBD^ADP⋅Pikoff5⇌kon5NBD^Pi+ADP With the forward and backward kinetic rate constants connected by thermodynamic equilibrium dissociation constants given by7 koffi/koni=KDifori=1,…,5 For each of the 5 states, a differential equation describing the conservation of mass can be derived:8 d/dtNBD^apo=+koff1NBD^ATP+koff2NBD^ADP+koff3NBD^Pi−kon1NBD^apoATP−kon2NBD^apoADP−kon3NBD^apoPi 9 d/dt[NBD^ATP]=+kon1NBD^apoATP−koff1NBD^ATP−kcatNBD^ATP 10 d/dtNBD^ADP⋅Pi=+kcatNBD^ATP+kon4NBD^ADPPi+kon5NBD^PiADP−koff4NBD^ADP⋅Pi−koff5NBD^ADP⋅Pi 11 d/dtNBD^ADP=+koff4NBD^ADP⋅Pi+kon2NBD^apoADP−koff2NBD^ADP−kon4NBD^ADPPi 12 d/dtNBD^Pi=+koff5NBD^ADP⋅Pi+kon3NBD^apoPi−koff3NBD^Pi−kon5NBD^PiADP Furthermore, we have the total amount13 NBD^apo+NBD^ATP+NBD^ADP+NBD^ADP⋅Pi+NBD^Pi=NBD0 These equations can be used for numerical fitting of steady-state and non-steady-state experimental data.
The experimental data of the BiP NBD in-cyclo experiments were fitted using standard reaction kinetics. Free variables were the kon and koff rates for the five reversible reaction and the catalytic rate constant (kcat) for the irreversible ATP hydrolysis step (See theory section). The initial values for kcat , koff2 , koff4 and koff5 were set to the value determined experimentally with in-cyclo experiment. The initial value for koff3 was taken from the EXSY experiment and the initial range for koff1 and KD1 were taken from the literature. […] The prior distributions were defined based on the average state occupancy resolved from the in-cyclo experiment: tNBD·ADP, tNBD, tNBD·ADP·Pi and tNBD·Pi. Numerical integration of the corresponding differential equations for the reaction scheme (described in Fig. 2a) was performed using a custom Python module (Kinetic).
To fully determine all kinetic parameters, the data fitting procedure was conducted as a global fit of four independent experimental datasets: (i) the in-cyclo experiment with ATP regeneration and phosphate removal, (ii) ATP regeneration only, (iii) single batch experiments starting from pure ATP with the phosphate removal system, and (iv) single batch experiments starting from pure ATP.
Fitting of the functional cycle kinetic parameters. a-d, Global fit of the experimental data presented in the manuscript E1 +E2 (a), E1 (b), E2 (c), no recycling system (d). Data points are shown as circles NBD·ADP (blue), NBD·ADP·PI (dark blue) and NBD·ATP (red) (left) and pyruvate (grey), glucose-1-P (lavender), ATP (red) and ADP (blue) (right). The fit of the data is shown as lines in the same color as the data points. Data points and standard deviation for three independent experiments. e, Numerical stability of the global fitting of the experimental data.

[1] = Supplementary Fig 10a, time 5 min
[2] = Supplementary Fig 10a, time 11 min
[3] = Supplementary Fig 10a, time 17 min
[4] = Supplementary Fig 10a, time 23 min
[5] = Supplementary Fig 10a, time 29 min
[6] = Supplementary Fig 10a, time 35 min
[7] = Supplementary Fig 10a, time 41 min
[8] = Supplementary Fig 10a, time 47 min
[9] = Supplementary Fig 10a, time 53 min
[10] = Supplementary Fig 10a, time 59 min
[11] = Supplementary Fig 10a, time 65 min
[12] = Supplementary Fig 10a, time 71 min
[13] = Supplementary Fig 10b, time 10 min
[14] = Supplementary Fig 10b, time 16 min
[15] = Supplementary Fig 10b, time 22 min
[16] = Supplementary Fig 10b, time 28 min
[17] = Supplementary Fig 10b, time 34 min
[18] = Supplementary Fig 10b, time 40 min
[19] = Supplementary Fig 10b, time 46 min
[20] = Supplementary Fig 10b, time 52 min
[21] = Supplementary Fig 10b, time 58 min
[22] = Supplementary Fig 10b, time 64 min
[23] = Supplementary Fig 10b, time 70 min

BiP NBD, sequence (P11021 19-406): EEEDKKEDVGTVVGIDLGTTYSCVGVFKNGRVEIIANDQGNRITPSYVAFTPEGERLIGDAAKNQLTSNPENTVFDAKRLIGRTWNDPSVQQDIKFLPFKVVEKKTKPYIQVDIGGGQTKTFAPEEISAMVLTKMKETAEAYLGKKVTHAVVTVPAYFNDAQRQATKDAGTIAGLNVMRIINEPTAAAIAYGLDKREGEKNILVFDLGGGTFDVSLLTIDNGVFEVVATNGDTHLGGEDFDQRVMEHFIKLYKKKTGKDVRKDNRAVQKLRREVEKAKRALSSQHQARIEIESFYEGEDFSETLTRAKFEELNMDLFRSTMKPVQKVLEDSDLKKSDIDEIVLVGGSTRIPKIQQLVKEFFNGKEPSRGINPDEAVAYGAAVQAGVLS

Compound | species [1] [µM] | species [2] [µM] | species [3] [µM] | species [4] [µM] | species [5] [µM] | species [6] [µM] | species [7] [µM] | species [8] [µM] | species [9] [µM] | species [10] [µM] | species [11] [µM] | species [12] [µM] | species [13] [µM] | species [14] [µM] | species [15] [µM] | species [16] [µM] | species [17] [µM] | species [18] [µM] | species [19] [µM] | species [20] [µM] | other results
C=C(OP(=O)(O)O)C(=O)O [PEP] | 23927 | 22915 | 22075 | 20991 | 20195 | 19469 | 18568 | 17755 | 16928 | 16013 | 15275 | 14277 | 9179 | 8398 | 7745 | 7180 | 6616 | 6265 | 5793 | 5256 | species [21]: 4838 µM; species [22]: 4465 µM; species [23]: 3973 µM
CC(=O)C(=O)O [Pyruvate] | 841 | 1872 | 3013 | 4002 | 4950 | 5935 | 6850 | 7775 | 8621 | 9455 | 10281 | 11083 | 1011 | 1602 | 2255 | 2820 | 3384 | 3735 | 4207 | 4544 | species [21]: 4962 µM; species [22]: 5335 µM; species [23]: 5727 µM
O=P(O)(O)O[C@H]1O[C@H](CO)[C@@H](O)[C@H](O)[C@H]1O [glucose-1-p] | 1073 | 2085 | 2925 | 4009 | 4805 | 5531 | 6432 | 7245 | 8072 | 8987 | 9725 | 10723 | – | – | – | – | – | – | – | – | species (Supplementary Fig 10c, time 5 min): 690 µM; species (Supplementary Fig 10c, time 11 min): 1328 µM; species (Supplementary Fig 10c, time 17 min): 1777 µM; species (Supplementary Fig 10c, time 23 min): 2409 µM; species (Supplementary Fig 10c, time 29 min): 2838 µM; species (Supplementary Fig 10c, time 35 min): 3243 µM; species (Supplementary Fig 10c, time 41 min): 3518 µM; species (Supplementary Fig 10c, time 47 min): 3730 µM; species (Supplementary Fig 10c, time 53 min): 3950 µM
